Reference: ChEMBL document CHEMBL1151187, “Antioxidant xanthones from Garcinia vieillardii” (J Nat Prod, 2004)
Active and inactive are the calls of the source. No cut-off for these calls is given here.

Test system: Radical scavenging activity
Assay: Antioxidant activity assessed as DPPH radical scavenging activity
Format: functional

Compound	Activity
C=CC(C)(C)c1c(O)cc(O)c2c(=O)c3ccc(O)c(O)c3oc12	Active
C=C(c1c(OC)cc(O)c2c(=O)c3ccc(O)c(O)c3oc12)C(C)C	Active
COc1ccc(O)c(C(C)(C)C)c1.COc1ccc(O)cc1C(C)(C)C	Active
